Results: BindingDB's records for doi:10.1016/j.bmcl.2004.08.063 (Abbott Laboratories, 2004)

What was measured:
[1] = target: T1, Tyrosine-protein phosphatase non-receptor type 2 (Homo sapiens, UniProt P17706); experiment: PTP1B and TCPTP Inhibition Assay; details: pH 7.5; 22 °C
T1 sequence (P17706 whole entry): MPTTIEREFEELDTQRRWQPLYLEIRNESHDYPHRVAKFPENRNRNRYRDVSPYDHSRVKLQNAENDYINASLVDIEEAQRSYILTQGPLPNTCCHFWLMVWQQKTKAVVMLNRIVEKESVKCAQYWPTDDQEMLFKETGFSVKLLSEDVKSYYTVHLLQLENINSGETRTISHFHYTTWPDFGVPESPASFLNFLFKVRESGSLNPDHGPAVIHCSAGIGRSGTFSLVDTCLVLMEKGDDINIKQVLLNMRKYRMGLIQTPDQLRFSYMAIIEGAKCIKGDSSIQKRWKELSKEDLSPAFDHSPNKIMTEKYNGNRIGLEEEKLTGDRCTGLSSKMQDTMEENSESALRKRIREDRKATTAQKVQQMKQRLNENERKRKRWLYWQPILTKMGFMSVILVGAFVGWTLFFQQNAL
Description: (§1) For each concentration of test compound or DMSO control, the initial rates were used to fit the rectangular hyperbola of Michaelis-Menten by nonlinear regression analysis. The ratio of the apparent Km/Vmax vs inhibitor concentration was plotted, and the Ki was calculated by linear regression to be the negative X-intercept.

[2] = target: T2, Tyrosine-protein phosphatase non-receptor type 1 [1-298] (Homo sapiens, UniProt P18031); experiment: PTP1B and TCPTP Inhibition Assay; details: pH 7.5; 22 °C
T2 construct: 1-298
T2 sequence (P18031 whole entry): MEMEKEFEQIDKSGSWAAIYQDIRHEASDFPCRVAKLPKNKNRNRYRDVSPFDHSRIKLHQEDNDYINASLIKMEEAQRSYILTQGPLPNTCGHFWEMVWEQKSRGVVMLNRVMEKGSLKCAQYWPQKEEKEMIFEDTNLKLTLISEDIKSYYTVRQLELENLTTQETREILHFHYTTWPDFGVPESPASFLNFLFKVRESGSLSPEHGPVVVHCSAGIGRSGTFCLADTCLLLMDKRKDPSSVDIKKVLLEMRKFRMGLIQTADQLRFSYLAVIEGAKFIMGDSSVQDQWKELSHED
Description: as §1

Compound	Ki [1] [µM]	Ki [2] [µM]
COC(=O)c1c(O)cccc1OC/C=C/c1cccc(-c2onc(C(=O)O)c2N)c1 [4-amino-5-{3-[(1E)-3-[3-hydroxy-2-(methoxycarbonyl)phenoxy]prop-1-en-1-yl]phenyl}-1,2-oxazole-3-carboxylic acid]	> 30	
COC(=O)c1c(O)cccc1OCC1CC1c1cccc(-c2cc(C(=O)O)no2)c1 (configuration not stated) [5-(3-{2-[3-hydroxy-2-(methoxycarbonyl)phenoxymethyl]cyclopropyl}phenyl)-1,2-oxazole-3-carboxylic acid]		23
